Laboratory results as given in ChEMBL document CHEMBL5726907, “FXR (NR1H4) modulating compounds” (2018).

Biological target: T1, Bile acid receptor (Homo sapiens, UniProt Q96RI1)
T1 sequence (Q96RI1 whole entry): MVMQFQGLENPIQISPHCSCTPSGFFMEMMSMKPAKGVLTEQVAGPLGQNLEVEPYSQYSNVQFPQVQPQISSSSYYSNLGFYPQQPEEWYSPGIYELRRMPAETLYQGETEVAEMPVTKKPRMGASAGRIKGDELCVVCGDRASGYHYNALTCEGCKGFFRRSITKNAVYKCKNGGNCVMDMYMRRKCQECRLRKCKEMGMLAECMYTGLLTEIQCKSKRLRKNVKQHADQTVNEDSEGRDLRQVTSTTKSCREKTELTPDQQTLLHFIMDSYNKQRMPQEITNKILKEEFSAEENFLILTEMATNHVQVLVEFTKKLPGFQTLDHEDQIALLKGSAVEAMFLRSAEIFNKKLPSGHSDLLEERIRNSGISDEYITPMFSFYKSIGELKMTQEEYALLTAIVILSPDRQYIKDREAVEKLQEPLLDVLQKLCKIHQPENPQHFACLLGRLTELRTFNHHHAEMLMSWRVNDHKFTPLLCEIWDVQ
Test: FRET Activity Assay: The human FXRalpha LBD was expressed in E. coli strain BL21(DE3) as an N-terminally GST tagged fusion protein. The DNA encoding the FXR ligand binding domain was cloned into vector pDEST15 (Invitrogen). Expression was under control of an IPTG inducible T7 promoter. The amino acid boundaries of the ligand binding domain were amino acids 187-472 of Database entry NM_005123 (RefSeq). Expression and purification of the FXR-LBD: An overnight preculture of a transformed E. coli strain was diluted 1:20 in LB-Ampicillin medium and grown at 30° C. to an optical density of =0.4-0.6. Gene expression was then induced by addition of 0.5 mM IPTG. Cells were incubated an additional 6 h at 30° C., 180 rpm. Cells were collected by centrifugation (7000×g, 7 min, rt). Per liter of original cell culture, cells were resuspended in 10 mL lysis buffer (50 mM Glucose, 50 mM Tris pH 7.9, 1 mM EDTA and 4 mg/mL lysozyme) and left on ice for 30 min. Cells were then subjected to sonication and cell debris removed via centrifugation (22000×g, 30 min, 4° C.). Per 10 mL of supernatant 0.5 mL prewashed Glutathione 4B sepharose slurry (Qiagen) was added and the suspension kept slowly rotating for 1 h at 4° C. Glutathione 4B sepharose beads were pelleted by centrifugation (2000× g, 15 sec, 4° C.) and washed twice in wash buffer (25 mM Tris, 50 mM KCl, 4 mM MgCl2 and IM NaCl). […]

Row | IC50 | Structure (SMILES)
1 | 30 nM | O=C(O)c1ccc2nc(C3(O)C4COCC3CC(OCc3c(-c5c(Cl)cccc5Cl)noc3C3CC3)C4)sc2c1 (configuration not stated)
2 | 19 nM | O=C(O)c1cc(F)c2nc(C3(O)C4COCC3CC(OCc3c(-c5c(Cl)cccc5Cl)noc3C3CC3)C4)sc2c1 (configuration not stated)
